Assay results as given in patent US20180200392A1, “DETECTION AND TREATMENT OF RENAL CELL CARCINOMA WITH A SLC6A3 LIGAND LINKED TO A LABEL, CYTOTOXIC OR IMMUNO[…]” (Akuru Pharma AB, priority 2015, published 2018).

How the values were obtained:
SLC6A3 = SLC6A3 (Homo sapiens, UniProt Q01959); test: [3H]dopamine uptake in ccRCC cell lines in the presence of specific SLC6A3 inhibitors; conditions: GBR12935 30 nM (SKRC10); GBR12909 10-90 nM (KMRC3, SNU-349); 1 h pre-incubation, 5 min uptake; FIG. 8 A-C
Sequence of SLC6A3 (Q01959 whole entry): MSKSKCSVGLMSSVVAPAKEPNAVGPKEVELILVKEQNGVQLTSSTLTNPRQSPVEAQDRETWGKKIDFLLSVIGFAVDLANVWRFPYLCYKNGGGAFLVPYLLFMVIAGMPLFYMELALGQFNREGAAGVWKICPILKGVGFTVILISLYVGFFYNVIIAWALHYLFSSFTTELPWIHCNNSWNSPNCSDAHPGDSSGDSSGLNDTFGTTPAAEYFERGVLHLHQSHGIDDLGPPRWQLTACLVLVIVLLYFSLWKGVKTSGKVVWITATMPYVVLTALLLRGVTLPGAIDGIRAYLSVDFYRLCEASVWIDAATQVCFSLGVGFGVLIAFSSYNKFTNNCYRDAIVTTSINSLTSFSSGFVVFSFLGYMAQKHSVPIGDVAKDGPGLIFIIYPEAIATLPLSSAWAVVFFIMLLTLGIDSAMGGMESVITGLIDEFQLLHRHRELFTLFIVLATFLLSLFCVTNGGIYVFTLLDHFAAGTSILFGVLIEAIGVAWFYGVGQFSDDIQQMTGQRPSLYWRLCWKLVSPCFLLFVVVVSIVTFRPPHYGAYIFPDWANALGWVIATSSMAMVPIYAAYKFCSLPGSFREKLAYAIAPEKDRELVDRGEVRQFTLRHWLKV
Description: Data presented as mean±SEM.
(§1) Uptake experiments were performed in cells cultivated in 12-well plates at 37° C. The cells of interest were seeded at 80.000 cells/well 48 h before the uptake experiment was performed. The wells were washed in 1×PBS, followed by a wash in 1 ml of assay buffer (Hanks Balanced Salt Solution (HBSS) with CaCl2 and MgCl2, without phenol red supplemented with 10 mM HEPES, pH 7.4) at 37° C. and then incubated with 0.5 ml of buffer for 5 min. […] All uptake experiments were stopped by removing the uptake buffer and adding 1 ml of ice-cold assay buffer to each well and immediately aspirating the buffer and washing three additional times with 1 ml of ice-cold buffer. The incorporated radioactivity was extracted by solubilising the cells with 1% Triton-X for 1 h at R.T, 6 ml of scintillation fluid was thereafter added. The amount of radioactivity was measured with a Tri-carb 2810TR liquid scintillation analyzer (Perkin Elmer).

[1] = in vivo; cited from earlier work
KMRC-3 cells = test: SPECT/CT imaging of mice with orthotopically injected KMRC-3 ccRCC cells; type: in vivo; conditions: 5.36 MBq injected 13 weeks after cell injection, imaged after 1 h and 35 min, FIG. 4
Description: FIG. 4: SPECT/CT images of a mouse injected with 5.36 MBq (^123I-Ioflupan).
ccRCC cell line KMRC-3 cells were injected orthotopically in mice, 2*10^6 cells in 40 ul PBS. After 13 weeks the mice were injected with 5.36 MBq ^123I-Ioflupan and analysed by SPECT/CT imaging after 1 h and 35 min.

ccRCC cell lines = conditions: 7 nM [3H]dopamine; uptake correlates with SLC6A3 expression level
Description: as §1

Description for primary ccRCC cells: as §1

## c1ccc(CCCN2CCN(CCOC(c3ccccc3)c3ccccc3)CC2)cc1 [GBR12935]
SLC6A3
  amount of [3H]-dopamine taken up by ccRCC cells in presence of inhibitor: clearly diminish

## NCCc1ccc(O)c(O)c1 [unlabelled dopamine, dopamine]
Primary ccRCC cells; 7 nM [3H]dopamine with 2 uM or 20 uM unlabelled dopamine for 5 min, FIG. 7A-B
  [3H]dopamine uptake of primary ccRCC tumor cells in response to competitive unlabelled dopamine: decreased uptake

## Fc1ccc(C(OCCC2CCN(Cc3ccc(I)cc3)CC2)c2ccc(F)cc2)cc1 [FMIP, 4-(2-(bis(4-fluorophenyl)methoxy)ethyl)-1-(4-iodobenzyl)piperidine]
[1]
  passage of the blood-brain barrier: does not pass the blood-brain barrier

## COC(=O)[C@@H]1C2CCC(C[C@@H]1c1ccc(I)cc1)N2CCCF (stereo partly drawn) [Ioflupane (^123I), [^123I] N-ω-fluoropropyl-2β-carbomethoxy-3β-(4-iodophenyl)nortropane]
KMRC-3 cells
  uptake in contralateral kidney lacking injected tumor cells (SPECT/CT): no enhanced uptake
  uptake in kidney orthotopically injected with KMRC-3 cells (SPECT/CT): clearly display enhanced uptake
KMRC-3 cells; listed as 123I-Ioflupan
  uptake in contralateral kidney lacking injected tumor cells (SPECT/CT): no signal could be detected
  uptake in kidney orthotopically injected with KMRC-3 cells (SPECT/CT): uptake

## NCCc1ccc(O)c(O)c1 [[H^3]dopamine]
ccRCC cell lines
  uptake of [3H]dopamine by ccRCC cell lines: take up
Primary ccRCC cells; 7 nM [3H]dopamine, 1-20 min, 37° C., FIG. 3 and FIG. 7A
  uptake of [3H]dopamine by primary ccRCC cells compared to primary normal cortex cell: enhanced uptake
